According to publication PMC8940841, “A metabolically stable PET tracer for imaging synaptic vesicle protein 2A: synthesis and preclinical characterization of [^18F]SDM-16” (European Journal of Nuclear Medicine and Molecular Imaging, 2021):
Where two headings read alike, the source gives them in different places.

Key:
[1] = target: T1, human SV2A (Homo sapiens, UniProt Q7L0J3); design: Duplicate samples of human frontal cortex gray matter were homogenized in PBS buffer; from tissue; host or cells: human frontal cortex gray matter homogenate; settings: other SV2A ligands, cited from earlier work
[2] = Measurement of lipophilicity (octanol / PBS pH 7.4); type: physicochemical; settings: octanol/PBS pH 7.4
Procedure: The logP of [^18F]SDM-16 was determined by a method modified from previously published procedures. Briefly, an aliquot of […] (10 µCi) of the radioligand was added to a 2-mL microtube containing 0.8 mL of octanol and 0.8 mL of 1 × phosphate buffered saline (1 × PBS, pH 7.4). The mixture was vortexed for 30 s and then centrifuged at 2000 g for 2 min. A subsample of the octanol (0.1 mL) and 1 × PBS (0.5 mL) layers was evaluated with a gamma counter. The major portion of the octanol layer (0.5 mL) was diluted with another 0.3 mL of octanol, mixed with a fresh portion of 0.8 mL of PBS, vortexed, centrifuged, and analyzed as described above. This process was repeated until consistent log P values were obtained, with five consecutive equilibration procedures being performed for each logP measurement. Four separate measurements were performed for [^18F]SDM-16 on different days.

[3] = Plasma free fraction (fp) by ultrafiltration; type: in vitro ADME, rhesus monkey; settings: monkey, plasma (separated from spiked whole blood)
Procedure: The unbound fraction of [^18F]SDM-16 in plasma (fp) of rhesus monkey was measured in triplicate using the ultrafiltration method. Briefly, [^18F]SDM-16 solution was added to 3 mL of whole blood. After incubation at ambient temperature for 5 min, the blood sample was centrifuged at 3900 rpm for 5 min. A sample of the supernatant plasma (0.3 mL) was loaded onto the reservoir of a Centrifree® Ultrafiltration device (Merck Millipore Ltd. Tullagreen, Carrigtwohill, Co. Cork, IRELAND) in triplicate and centrifuged at 1228 g for 20 min. The fp value was calculated as the ratio of radioactivity in the filtrate to that in the plasma.

[4] = target: T2, SV2A (Macaca mulatta, UniProt H9EQH8); settings: previously determined; cited from earlier work
[5] = Brain PET imaging with 1TC kinetic modeling; settings: rhesus monkey, in vivo
[6] = Adverse event observation during PET imaging; type: in vivo, rhesus monkeys; settings: tracer at microdose 0.646–0.926 µg; LEV i.v. 30 mg/kg
Procedure: (§1) Four monkeys were studied.
Adverse event was also not observed following LEV (i.v., 30 mg/kg) administration, including the displacement and blocking scan.

[7] = target: T2, SV2A; test: LEV blocking and displacement PET scans, Lassen plot; type: in vivo, rhesus monkeys (Macaca mulatta); design: from tissue; host or cells: brain of living rhesus monkeys (in vivo PET); settings: LEV 30 mg/kg i.v., Lassen plot with [^18F]SDM-16
Source text: as §1
To examine the in vivo binding specificity, SV2A occupancy, and the extent of nonspecific binding in the monkey brain, we performed the Lassen plot analysis using data from the two baseline scans and one blocking scan in the same monkey.

[8] = target: T1, human SV2A; test: biochemical
Procedure: Competition binding assays were performed twice independently using separate assay materials, with 4 technical replicates from each independent assay. […] Duplicate samples of human frontal cortex gray matter were homogenized in PBS buffer (10 mg/mL) for storage at − 80 °C and were diluted to a stock concentration of 4 mg/mL in PBS on the day of the assays. […] Working stocks of brain homogenate (100 µL; final concentration of 2 mg/mL), blocking ligands (20 µL), and radioligand (80 µL; final concentration 2.5 nM) were combined in quadruplicate wells of 96-well plates, sealed, and incubated at room temperature for 90 min on an orbital shaker set to 250 RPM. Reaction plates were filtered, rapidly washed with cold PBS, and dried. Forty microliters of Microscint-20 scintillation cocktail (Perkin-Elmer) was added to each well, and the plate was counted using a Microbeta2 plate reader (Perkin-Elmer). GraphPad Prism was used for curve fitting using the one-site Ki model.

T1 sequence (Q7L0J3 whole entry): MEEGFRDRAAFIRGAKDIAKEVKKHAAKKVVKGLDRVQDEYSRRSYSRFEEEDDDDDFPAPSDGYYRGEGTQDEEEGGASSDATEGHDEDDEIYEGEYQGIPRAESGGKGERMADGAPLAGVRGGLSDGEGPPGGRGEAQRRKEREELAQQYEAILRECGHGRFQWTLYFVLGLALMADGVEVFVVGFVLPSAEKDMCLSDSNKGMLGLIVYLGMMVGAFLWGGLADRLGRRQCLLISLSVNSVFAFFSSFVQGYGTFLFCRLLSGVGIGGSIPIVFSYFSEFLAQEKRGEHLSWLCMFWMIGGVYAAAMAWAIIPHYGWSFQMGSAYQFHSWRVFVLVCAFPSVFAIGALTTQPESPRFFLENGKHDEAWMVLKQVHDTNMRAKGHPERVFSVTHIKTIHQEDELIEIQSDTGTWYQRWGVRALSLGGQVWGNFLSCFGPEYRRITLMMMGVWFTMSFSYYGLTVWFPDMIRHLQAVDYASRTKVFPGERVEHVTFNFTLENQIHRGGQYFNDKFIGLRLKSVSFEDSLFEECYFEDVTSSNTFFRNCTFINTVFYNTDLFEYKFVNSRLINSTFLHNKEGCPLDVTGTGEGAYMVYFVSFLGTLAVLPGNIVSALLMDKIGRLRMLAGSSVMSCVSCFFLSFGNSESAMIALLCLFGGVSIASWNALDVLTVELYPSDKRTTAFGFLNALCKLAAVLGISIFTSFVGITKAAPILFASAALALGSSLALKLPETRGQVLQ
T2 sequence (H9EQH8 1-742): as the sequence (Q7L0J3 whole entry) above, with G64S, I572V counted along it

**Q.** Which Ki ([1]; read-out: Ki) does the source give for `Cc1cnccc1CN1C[C@@H](c2cc(F)c(F)c(F)c2)CC1=O` [UCB-J] here?
**A.** 2.6 nM

**Q.** What does the source list for `Cc1cnccc1CN1C[C@@H](c2cccc([18F])c2)CC1=O` [[^18F]SynVesT-2]?
**A.** logP [2]: 2.17; fraction unbound at 5 min [3]: 0.41; VND [4]: 2.10 mL/cm^3; fraction unbound [5]: 0.195

**Q.** Which adverse events [6] does the source give for `CC[C@@H](C(N)=O)N1CCCC1=O` [Levetiracetam, levetiracetam, reference compound] here?
**A.** not observed

**Q.** What about the SV2A occupancy [7] of the same compound?
**A.** 79%

**Q.** What about the Ki [1] of the same compound?
**A.** 2100 nM

**Q.** Which Ki [8] does the source give for `Cc1nccn1CN1CC(c2cc(F)cc(F)c2)CC1=O` (racemic) [Rac SDM-16, 4-(3,5-difluorophenyl)-1-((2-methyl-1H-imidazol-1-yl)methyl)pyrrolidin-2-one] here?
**A.** 3.7 nM
